The NIST ThermoML archive (doi:10.1021/je800197t)
Numbers after ± are expanded uncertainties.

Experiment: xn = mol fraction of the nth substance listed
Conditions: 101 kPa, Liquid

CN1CCOCC1 [N-methylmorpholine] + O
Conditions | mass density [kg/m3] | viscosity [mPa·s]
293.15 K, x1 = 0.0452 | 1002.38 ± 1 | 1.898 ± 0.17
293.15 K, x1 = 0.0942 | 1005.32 ± 1.1 | 2.577 ± 0.23
293.15 K, x1 = 0.1267 | 1003.31 ± 1.1 | 3.048 ± 0.27
293.15 K, x1 = 0.1763 | 1000.27 ± 1.1 | 3.562 ± 0.32
293.15 K, x1 = 0.2022 | 996.93 ± 1.1 | 3.777 ± 0.33
293.15 K, x1 = 0.2538 | 991.88 ± 1.2 | 4.115 ± 0.36
293.15 K, x1 = 0.2843 | 988.53 ± 1.2 | 4.238 ± 0.37
293.15 K, x1 = 0.3275 | 983.61 ± 1.3 | 4.395 ± 0.38
293.15 K, x1 = 0.3754 | 977.87 ± 1.4 | 4.439 ± 0.39
293.15 K, x1 = 0.4033 | 974.29 ± 1.5 | 4.429 ± 0.39
293.15 K, x1 = 0.4286 | 971.29 ± 1.5 | 4.406 ± 0.39
293.15 K, x1 = 0.4689 | 966.09 ± 1.6 | 4.331 ± 0.38
293.15 K, x1 = 0.4983 | 962.76 ± 1.7 | 4.241 ± 0.37
293.15 K, x1 = 0.5433 | 957.25 ± 1.8 | 4.065 ± 0.36
293.15 K, x1 = 0.5983 | 950.09 ± 1.9 | 3.798 ± 0.34
293.15 K, x1 = 0.6438 | 945.88 ± 2 | 3.544 ± 0.32
293.15 K, x1 = 0.6942 | 941.06 ± 2.1 | 3.187 ± 0.28
293.15 K, x1 = 0.7587 | 934.53 ± 2.2 | 2.792 ± 0.25
293.15 K, x1 = 0.8163 | 929.89 ± 2.4 | 2.323 ± 0.21
293.15 K, x1 = 0.8869 | 924.9 ± 2.5 | 1.791 ± 0.17
293.15 K, x1 = 0.9244 | 922.59 ± 2.6 | 1.503 ± 0.14
293.15 K, x1 = 0.9812 | 919.88 ± 2.6 | 1.166 ± 0.11
303.15 K, x1 = 0.0452 | 990.98 ± 1.1 | 1.594 ± 0.15
303.15 K, x1 = 0.0942 | 993.65 ± 1.1 | 2.036 ± 0.19
303.15 K, x1 = 0.1267 | 991.58 ± 1.1 | 2.451 ± 0.22
303.15 K, x1 = 0.1763 | 988.46 ± 1.2 | 2.922 ± 0.26
303.15 K, x1 = 0.2022 | 985.14 ± 1.2 | 3.065 ± 0.27
303.15 K, x1 = 0.2538 | 980.12 ± 1.3 | 3.386 ± 0.3
303.15 K, x1 = 0.2843 | 976.81 ± 1.4 | 3.497 ± 0.31
303.15 K, x1 = 0.3275 | 971.96 ± 1.5 | 3.619 ± 0.32
303.15 K, x1 = 0.3754 | 966.31 ± 1.6 | 3.669 ± 0.32
303.15 K, x1 = 0.4033 | 962.77 ± 1.6 | 3.636 ± 0.32
303.15 K, x1 = 0.4286 | 959.83 ± 1.7 | 3.635 ± 0.32
303.15 K, x1 = 0.4689 | 954.72 ± 1.8 | 3.562 ± 0.32
303.15 K, x1 = 0.4983 | 951.45 ± 1.8 | 3.521 ± 0.31
303.15 K, x1 = 0.5433 | 946.05 ± 1.9 | 3.363 ± 0.3
303.15 K, x1 = 0.5983 | 939.74 ± 2 | 3.128 ± 0.28
303.15 K, x1 = 0.6438 | 934.89 ± 2.1 | 2.878 ± 0.26
303.15 K, x1 = 0.6942 | 931.06 ± 2.2 | 2.588 ± 0.23
303.15 K, x1 = 0.7587 | 924.36 ± 2.4 | 2.262 ± 0.21
303.15 K, x1 = 0.8163 | 920.39 ± 2.5 | 1.857 ± 0.17
303.15 K, x1 = 0.8869 | 915.52 ± 2.6 | 1.489 ± 0.14
303.15 K, x1 = 0.9244 | 913.29 ± 2.7 | 1.359 ± 0.13
303.15 K, x1 = 0.9812 | 910.58 ± 2.8 | 1.091 ± 0.11
313.15 K, x1 = 0.0452 | 985.04 ± 1.2 | 1.327 ± 0.13
313.15 K, x1 = 0.0942 | 982.32 ± 1.2 | 1.715 ± 0.16
313.15 K, x1 = 0.1267 | 980.45 ± 1.3 | 1.968 ± 0.18
313.15 K, x1 = 0.1763 | 977.58 ± 1.3 | 2.348 ± 0.21
313.15 K, x1 = 0.2022 | 974.42 ± 1.4 | 2.482 ± 0.23
313.15 K, x1 = 0.2538 | 969.64 ± 1.4 | 2.703 ± 0.24
313.15 K, x1 = 0.2843 | 966.47 ± 1.5 | 2.838 ± 0.26
313.15 K, x1 = 0.3275 | 961.8 ± 1.6 | 2.908 ± 0.26
313.15 K, x1 = 0.3754 | 956.33 ± 1.7 | 2.901 ± 0.26
313.15 K, x1 = 0.4033 | 952.91 ± 1.7 | 2.869 ± 0.26
313.15 K, x1 = 0.4286 | 950.06 ± 1.8 | 2.869 ± 0.26
313.15 K, x1 = 0.4689 | 945.1 ± 1.9 | 2.798 ± 0.25
313.15 K, x1 = 0.4983 | 941.92 ± 1.9 | 2.758 ± 0.25
313.15 K, x1 = 0.5433 | 936.67 ± 2 | 2.602 ± 0.23
313.15 K, x1 = 0.5983 | 930.57 ± 2.1 | 2.388 ± 0.22
313.15 K, x1 = 0.6438 | 925.8 ± 2.2 | 2.244 ± 0.2
313.15 K, x1 = 0.6942 | 922.05 ± 2.3 | 2.031 ± 0.19
313.15 K, x1 = 0.7587 | 916.24 ± 2.5 | 1.764 ± 0.16
313.15 K, x1 = 0.8163 | 912.31 ± 2.5 | 1.495 ± 0.14
313.15 K, x1 = 0.8869 | 907.94 ± 2.7 | 1.222 ± 0.12
313.15 K, x1 = 0.9244 | 905.91 ± 2.7 | 1.077 ± 0.11
313.15 K, x1 = 0.9812 | 903.31 ± 2.8 | 0.952 ± 0.095
323.15 K, x1 = 0.0452 | 978.13 ± 1.3 | 1.119 ± 0.11
323.15 K, x1 = 0.0942 | 972.37 ± 1.4 | 1.334 ± 0.13
323.15 K, x1 = 0.1267 | 968.24 ± 1.4 | 1.539 ± 0.14
323.15 K, x1 = 0.1763 | 965.46 ± 1.5 | 1.761 ± 0.16
323.15 K, x1 = 0.2022 | 962.36 ± 1.5 | 1.858 ± 0.17
323.15 K, x1 = 0.2538 | 957.73 ± 1.6 | 2.023 ± 0.19
323.15 K, x1 = 0.2843 | 954.64 ± 1.6 | 2.113 ± 0.19
323.15 K, x1 = 0.3275 | 950.07 ± 1.7 | 2.183 ± 0.2
323.15 K, x1 = 0.3754 | 944.75 ± 1.8 | 2.176 ± 0.2
323.15 K, x1 = 0.4033 | 941.43 ± 1.9 | 2.143 ± 0.2
323.15 K, x1 = 0.4286 | 938.65 ± 1.9 | 2.144 ± 0.2
323.15 K, x1 = 0.4689 | 933.8 ± 2 | 2.073 ± 0.19
323.15 K, x1 = 0.4983 | 930.71 ± 2.1 | 2.033 ± 0.19
323.15 K, x1 = 0.5433 | 925.57 ± 2.2 | 1.948 ± 0.18
323.15 K, x1 = 0.5983 | 919.96 ± 2.3 | 1.783 ± 0.17
323.15 K, x1 = 0.6438 | 916.85 ± 2.3 | 1.677 ± 0.16
323.15 K, x1 = 0.6942 | 913.49 ± 2.4 | 1.536 ± 0.14
323.15 K, x1 = 0.7587 | 906.16 ± 2.6 | 1.362 ± 0.13
323.15 K, x1 = 0.8163 | 902.37 ± 2.7 | 1.158 ± 0.11
323.15 K, x1 = 0.8869 | 898.07 ± 2.8 | 0.954 ± 0.095
323.15 K, x1 = 0.9244 | 896.15 ± 2.9 | 0.939 ± 0.094
323.15 K, x1 = 0.9812 | 894.06 ± 2.9 | 0.841 ± 0.085
333.15 K, x1 = 0.0452 | 968.24 ± 1.4 | 0.708 ± 0.074
333.15 K, x1 = 0.0942 | 961.01 ± 1.5 | 0.998 ± 0.099
333.15 K, x1 = 0.1267 | 955.3 ± 1.6 | 1.111 ± 0.11
333.15 K, x1 = 0.1763 | 951.37 ± 1.6 | 1.251 ± 0.12
333.15 K, x1 = 0.2022 | – | 1.297 ± 0.12
333.15 K, x1 = 0.2538 | 942.51 ± 1.8 | 1.396 ± 0.13
333.15 K, x1 = 0.2843 | 939.75 ± 1.8 | 1.425 ± 0.14
333.15 K, x1 = 0.3275 | 935.6 ± 1.9 | 1.477 ± 0.14
333.15 K, x1 = 0.3754 | 930.7 ± 2 | 1.468 ± 0.14
333.15 K, x1 = 0.4033 | 927.59 ± 2 | 1.434 ± 0.14
333.15 K, x1 = 0.4286 | 925 ± 2.1 | 1.433 ± 0.14
333.15 K, x1 = 0.4689 | 920.44 ± 2.2 | 1.361 ± 0.13
333.15 K, x1 = 0.4983 | 917.56 ± 2.2 | 1.319 ± 0.13
333.15 K, x1 = 0.5433 | 912.67 ± 2.3 | 1.232 ± 0.12
333.15 K, x1 = 0.5983 | 907.35 ± 2.4 | 1.126 ± 0.11
333.15 K, x1 = 0.6438 | 904.17 ± 2.5 | 1.033 ± 0.1
333.15 K, x1 = 0.6942 | 900.9 ± 2.6 | 0.935 ± 0.093
333.15 K, x1 = 0.7587 | 894.82 ± 2.7 | 0.837 ± 0.085
333.15 K, x1 = 0.8163 | 891.64 ± 2.8 | 0.809 ± 0.083
333.15 K, x1 = 0.8869 | 888.89 ± 2.9 | 0.719 ± 0.075
333.15 K, x1 = 0.9244 | 886.87 ± 3 | 0.703 ± 0.073
333.15 K, x1 = 0.9812 | 884.98 ± 3 | 0.709 ± 0.074
343.15 K, x1 = 0.0452 | 962.12 ± 1.5 | 0.499 ± 0.056
343.15 K, x1 = 0.0942 | 954.33 ± 1.6 | 0.564 ± 0.061
343.15 K, x1 = 0.1267 | 948.38 ± 1.7 | 0.653 ± 0.069
343.15 K, x1 = 0.1763 | 944.12 ± 1.7 | 0.691 ± 0.072
343.15 K, x1 = 0.2022 | 939.98 ± 1.8 | 0.704 ± 0.073
343.15 K, x1 = 0.2538 | 934.96 ± 1.9 | 0.729 ± 0.075
343.15 K, x1 = 0.2843 | 932.11 ± 1.9 | 0.757 ± 0.078
343.15 K, x1 = 0.3275 | 927.87 ± 2 | 0.771 ± 0.079
343.15 K, x1 = 0.3754 | 922.89 ± 2.1 | 0.793 ± 0.081
343.15 K, x1 = 0.4033 | 919.76 ± 2.1 | 0.757 ± 0.078
343.15 K, x1 = 0.4286 | 917.15 ± 2.2 | 0.755 ± 0.078
343.15 K, x1 = 0.4689 | 912.58 ± 2.3 | 0.773 ± 0.079
343.15 K, x1 = 0.4983 | 909.69 ± 2.3 | 0.718 ± 0.075
343.15 K, x1 = 0.5433 | 904.8 ± 2.4 | 0.701 ± 0.073
343.15 K, x1 = 0.5983 | 899.49 ± 2.5 | 0.661 ± 0.07
343.15 K, x1 = 0.6438 | 896.3 ± 2.6 | 0.629 ± 0.067
343.15 K, x1 = 0.6942 | 893.02 ± 2.7 | 0.598 ± 0.064
343.15 K, x1 = 0.7587 | 886.99 ± 2.8 | 0.569 ± 0.062
343.15 K, x1 = 0.8163 | 883.81 ± 2.9 | 0.566 ± 0.062
343.15 K, x1 = 0.8869 | 881.05 ± 3 | 0.556 ± 0.061
343.15 K, x1 = 0.9244 | 879.04 ± 3 | 0.551 ± 0.06
343.15 K, x1 = 0.9812 | 877.14 ± 3.1 | 0.535 ± 0.059
